This note sets out measurements from US11858938B2, “Imidazo-fused heterocycles and uses thereof” (Ligand Pharmaceuticals Incorporated, priority 2015, dated 2024).

Structures are written as SMILES.

The experiment has as its target T1, Recombinant human FLT3 (Homo sapiens, UniProt P36888).
T1 construct: His6 (C)
T1 sequence (P36888 27-993): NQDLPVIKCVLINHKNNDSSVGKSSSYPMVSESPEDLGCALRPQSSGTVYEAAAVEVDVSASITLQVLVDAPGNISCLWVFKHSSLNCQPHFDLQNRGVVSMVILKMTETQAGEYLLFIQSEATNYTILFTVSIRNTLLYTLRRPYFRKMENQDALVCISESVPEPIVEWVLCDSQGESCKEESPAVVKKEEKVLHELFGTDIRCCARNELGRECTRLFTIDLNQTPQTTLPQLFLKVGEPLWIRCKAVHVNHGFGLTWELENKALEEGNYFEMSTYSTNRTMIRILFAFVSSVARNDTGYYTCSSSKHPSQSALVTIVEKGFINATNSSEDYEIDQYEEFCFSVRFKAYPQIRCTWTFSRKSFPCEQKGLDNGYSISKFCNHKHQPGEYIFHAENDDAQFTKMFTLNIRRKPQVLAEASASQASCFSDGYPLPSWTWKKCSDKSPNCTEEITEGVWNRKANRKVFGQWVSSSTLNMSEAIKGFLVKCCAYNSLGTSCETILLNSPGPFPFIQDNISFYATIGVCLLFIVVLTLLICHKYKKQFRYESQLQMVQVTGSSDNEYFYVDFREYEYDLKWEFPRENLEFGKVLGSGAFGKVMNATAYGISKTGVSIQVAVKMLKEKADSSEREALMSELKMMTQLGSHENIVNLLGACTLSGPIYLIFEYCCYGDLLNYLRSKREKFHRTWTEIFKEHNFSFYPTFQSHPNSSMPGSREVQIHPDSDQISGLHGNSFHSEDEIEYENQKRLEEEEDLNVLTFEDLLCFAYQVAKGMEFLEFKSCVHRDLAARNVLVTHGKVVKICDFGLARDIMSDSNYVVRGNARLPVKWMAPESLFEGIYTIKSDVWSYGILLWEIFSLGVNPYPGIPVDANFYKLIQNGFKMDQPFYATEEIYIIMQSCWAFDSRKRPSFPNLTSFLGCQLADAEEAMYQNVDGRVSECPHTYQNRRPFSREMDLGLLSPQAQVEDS
The experiment in a line: Flt3 kinase inhibitory assay (radioisotope filtration binding, 33P-ATP). The class given is biochemical. Particulars: read-out: Flt3 inhibition IC50. The method, then:
The assay is performed using traditional radioisotope filtration binding.
A base reaction buffer is prepared consisting of 20 mM Hepes (pH 7.5), 10 mM MgCl2, 1 mM EGTA, 0.02% Brij35, 0.02 mg/ml BSA, 0.1 mM […], 2 mM DTT, 1% DMSO. The peptide substrate abltide [[…]] is added to the base reaction buffer to yield a final concentration of 5 μM. Additional cofactors (1.5 mM CaCl2, 16 ug/ml Calmodulin, and 2 mM MnCl2) are added to the buffer/substrate solution. Recombinant human FLT3 (baculovirus expression system using a C-terminal His6-tag) is added to the solution and gently mixed. Test compounds are dissolved in DMSO and added to the buffer/kinase solution to yield a final concentration of 5 μM. […] The reaction is initiated by the addition of ^33P-ATP (specific activity […]) into the reaction mixture to a final concentration of 10 μM. The kinase reaction was incubated for 120 minutes at room temperature. The reactions are spotted onto P81 ion exchange paper (Whatman #3698-915) and the filter papers are extensively washed in 0.75% Phosphoric acid and beta emissions are measured.

Consider `c1cc(-c2cn3cc(Nc4cc(CN5CCCC5)ccn4)nc3cn2)ccn1` [Compound 101], for which the IC50 was 0.11 nM.
To `c1cc(-c2ccc3nc(Nc4cc(CN5CCCC5)ccn4)cn3n2)ccn1` [Compound 102] belongs 0.25 nM.
